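Tested at 5 concentrations; 48 h exposure; 96-well plates; endpoints linearly interpolated, else capped at highest concentration. At the GI50, growth is halved.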 Calls of active or inactive are those of the source. Rule as the data show it: active = GI50 up to about 1.1 µM and inactive = higher.
Key:
Assay in all cases: inhibition of tumour cell growth, NCI panel, 48 h
MDA-N = system: MDA-N
SN12C = system: SN12C
NCI-H23 = system: NCI-H23
MDA-MB-435 = system: MDA-MB-435
LOX IMVI = system: LOX IMVI
A549 = system: A549
T47D = system: T47D
SK-MEL-5 = system: SK-MEL-5
Hs-578T = system: Hs-578T
HT-29 = system: HT-29
HOP-62 = system: HOP-62
MOLT-4 = system: MOLT-4
OVCAR-3 = system: OVCAR-3
SK-MEL-28 = system: SK-MEL-28
EKVX = system: EKVX
HCT-15 = system: HCT-15
ACHN = system: ACHN
SF-539 = system: SF-539
NCI/ADR-RES = system: NCI/ADR-RES
A498 = system: A498

Q: `CN(C)c1ccc(/N=N\c2cccc3ncccc23)cc1` was tested. Which GI50 (MDA-N) did it give?
A: 42 µM (inactive)

Q: What about the GI50 (SN12C) of the same compound?
A: 99.8 µM (inactive)

Q: What about the GI50 (NCI-H23) of the same compound?
A: > 100 µM (inactive)

Q: What about the GI50 (MDA-MB-435) of the same compound?
A: 29.4 µM (inactive)

Q: What about the GI50 (LOX IMVI) of the same compound?
A: 53.2 µM (inactive)

Q: And the GI50 (A549)?
A: 63.7 µM (inactive)

Q: What about the GI50 (T47D) of the same compound?
A: 1.89 µM (inactive)

Q: What about the GI50 (SK-MEL-5) of the same compound?
A: 20.4 µM (inactive)

Q: And the GI50 (Hs-578T)?
A: 44.7 µM (inactive)

Q: What about the GI50 (HT-29) of the same compound?
A: 39 µM (inactive)

Q: What about the GI50 (HOP-62) of the same compound?
A: 93.5 µM (inactive)

Q: What about the GI50 (MOLT-4) of the same compound?
A: 26.2 µM (inactive)

Q: And the GI50 (OVCAR-3)?
A: 22.9 µM (inactive)

Q: And the GI50 (SK-MEL-28)?
A: > 100 µM (inactive)

Q: And the GI50 (EKVX)?
A: 11.7 µM (inactive)

Q: What about the GI50 (HCT-15) of the same compound?
A: 51.9 µM

Q: What about the GI50 (ACHN) of the same compound?
A: 35.6 µM (inactive)

Q: And the GI50 (SF-539)?
A: > 100 µM (inactive)

Q: And the GI50 (NCI/ADR-RES)?
A: 49 µM (inactive)

Q: How did the GI50 (MDA-N) turn out when `COC1(OC)c2occc2C(=N)c2ccc(=O)oc21` was run?
A: > 100 µM (inactive)

Q: What about the GI50 (SN12C) of the same compound?
A: > 100 µM (inactive)

Q: What about the GI50 (NCI-H23) of the same compound?
A: > 100 µM (inactive)

Q: And the GI50 (MDA-MB-435)?
A: > 100 µM (inactive)

Q: What about the GI50 (LOX IMVI) of the same compound?
A: > 100 µM (inactive)

Q: And the GI50 (A498)?
A: > 100 µM (inactive)

Q: And the GI50 (A549)?
A: > 100 µM (inactive)

Q: And the GI50 (T47D)?
A: > 100 µM (inactive)

Q: And the GI50 (SK-MEL-5)?
A: 22.4 µM (inactive)

Q: What about the GI50 (Hs-578T) of the same compound?
A: > 100 µM (inactive)

Q: And the GI50 (HT-29)?
A: > 100 µM (inactive)

Q: What about the GI50 (HOP-62) of the same compound?
A: > 100 µM (inactive)

Q: What about the GI50 (MOLT-4) of the same compound?
A: > 100 µM (inactive)

Q: What about the GI50 (OVCAR-3) of the same compound?
A: 77.8 µM (inactive)

Q: What about the GI50 (SK-MEL-28) of the same compound?
A: > 100 µM (inactive)

Q: And the GI50 (EKVX)?
A: > 100 µM (inactive)

Q: And the GI50 (HCT-15)?
A: > 100 µM

Q: And the GI50 (ACHN)?
A: 92.3 µM (inactive)

Q: What about the GI50 (SF-539) of the same compound?
A: 41.9 µM (inactive)

Q: `CC(=O)OCC1OC(NC(=S)CCSc2nc3ccccc3c(=O)n2-c2ccccc2)C(OC(C)=O)C(OC(C)=O)C1OC(C)=O` (centres undefined) was tested. Which GI50 (MDA-N) did it give?
A: 44.4 µM (inactive)

Q: And the GI50 (SN12C)?
A: 68.2 µM (inactive)

Q: And the GI50 (NCI-H23)?
A: 68.1 µM (inactive)

Q: And the GI50 (MDA-MB-435)?
A: 52 µM (inactive)

Q: And the GI50 (LOX IMVI)?
A: 79.6 µM (inactive)

Q: And the GI50 (A549)?
A: > 100 µM (inactive)

Q: And the GI50 (T47D)?
A: 30.5 µM (inactive)

Q: And the GI50 (SK-MEL-5)?
A: 45 µM (inactive)

Q: What about the GI50 (Hs-578T) of the same compound?
A: 24.8 µM (inactive)

Q: And the GI50 (HT-29)?
A: > 100 µM (inactive)

Q: And the GI50 (HOP-62)?
A: 28.3 µM (inactive)

Q: What about the GI50 (MOLT-4) of the same compound?
A: 30 µM (inactive)

Q: And the GI50 (OVCAR-3)?
A: 40.4 µM (inactive)

Q: What about the GI50 (SK-MEL-28) of the same compound?
A: 59.6 µM (inactive)

Q: What about the GI50 (EKVX) of the same compound?
A: 57.8 µM (inactive)

Q: What about the GI50 (HCT-15) of the same compound?
A: 53.7 µM

Q: And the GI50 (ACHN)?
A: 83.4 µM (inactive)

Q: What about the GI50 (SF-539) of the same compound?
A: 1.64 µM (inactive)

Q: And the GI50 (NCI/ADR-RES)?
A: > 100 µM (inactive)

Q: What does the source list for `Cc1cc(NS(=O)(=O)c2ccc(Nc3c4ccccc4nc4ccc(C(=O)Nc5ccc(S(=O)(=O)N=C(N)N)cc5)cc34)cc2)no1`?
A: GI50 (MDA-N): > 100 µM (inactive); GI50 (SN12C): > 100 µM (inactive); GI50 (NCI-H23): > 100 µM (inactive); GI50 (MDA-MB-435): > 100 µM (inactive); GI50 (LOX IMVI): > 100 µM (inactive); GI50 (A549): > 100 µM (inactive); GI50 (T47D): > 100 µM (inactive); GI50 (SK-MEL-5): > 100 µM (inactive); GI50 (Hs-578T): > 100 µM (inactive); GI50 (HT-29): > 100 µM (inactive); GI50 (HOP-62): > 100 µM (inactive); GI50 (MOLT-4): > 100 µM (inactive); GI50 (OVCAR-3): > 100 µM (inactive); GI50 (SK-MEL-28): > 100 µM (inactive); GI50 (EKVX): > 100 µM (inactive); GI50 (HCT-15): > 100 µM; GI50 (ACHN): > 100 µM (inactive); GI50 (SF-539): > 100 µM (inactive); GI50 (NCI/ADR-RES): > 100 µM (inactive)

Q: Which results are given for `COc1cccc(C2c3cc4c(cc3OC(N3CCCC3)C2c2ccccc2)OCO4)c1O` (centres undefined)?
A: GI50 (MDA-N): 8.18 µM (inactive); GI50 (SN12C): 12.7 µM (inactive); GI50 (NCI-H23): 14 µM (inactive); GI50 (MDA-MB-435): 6.59 µM (inactive); GI50 (LOX IMVI): 12.4 µM (inactive); GI50 (A549): 11.6 µM (inactive); GI50 (T47D): 5.97 µM (inactive); GI50 (SK-MEL-5): 10.8 µM (inactive); GI50 (Hs-578T): 0.279 µM (active); GI50 (HT-29): 7.43 µM (inactive); GI50 (HOP-62): 21 µM (inactive); GI50 (MOLT-4): 3.85 µM (inactive); GI50 (OVCAR-3): 3.34 µM (inactive); GI50 (SK-MEL-28): 13 µM (inactive); GI50 (EKVX): 16.6 µM (inactive); GI50 (HCT-15): 6 µM; GI50 (ACHN): 3.72 µM (inactive); GI50 (SF-539): 6.78 µM (inactive); GI50 (NCI/ADR-RES): 9.91 µM (inactive)

Q: `COc1ccc(C2=Cc3nc2c(-c2ccccc2)c2ccc([nH]2)c(-c2ccccc2)c2nc(c(-c4ccccc4)c4ccc([nH]4)c3-c3ccccc3)C=C2)cc1` was tested. Which GI50 (MDA-N) did it give?
A: > 100 µM (inactive)

Q: And the GI50 (SN12C)?
A: > 100 µM (inactive)

Q: What about the GI50 (NCI-H23) of the same compound?
A: > 100 µM (inactive)

Q: What about the GI50 (MDA-MB-435) of the same compound?
A: > 100 µM (inactive)

Q: What about the GI50 (LOX IMVI) of the same compound?
A: > 100 µM (inactive)

Q: What about the GI50 (A498) of the same compound?
A: > 100 µM (inactive)

Q: What about the GI50 (A549) of the same compound?
A: > 100 µM (inactive)

Q: What about the GI50 (T47D) of the same compound?
A: > 100 µM (inactive)

Q: What about the GI50 (SK-MEL-5) of the same compound?
A: > 100 µM (inactive)

Q: And the GI50 (Hs-578T)?
A: > 100 µM (inactive)

Q: And the GI50 (HT-29)?
A: > 100 µM (inactive)

Q: And the GI50 (HOP-62)?
A: > 100 µM (inactive)

Q: And the GI50 (MOLT-4)?
A: > 100 µM (inactive)

Q: And the GI50 (OVCAR-3)?
A: > 100 µM (inactive)

Q: What about the GI50 (SK-MEL-28) of the same compound?
A: > 100 µM (inactive)

Q: And the GI50 (EKVX)?
A: > 100 µM (inactive)

Q: And the GI50 (HCT-15)?
A: > 100 µM

Q: And the GI50 (ACHN)?
A: > 100 µM (inactive)

Q: What about the GI50 (SF-539) of the same compound?
A: > 100 µM (inactive)

Reference: ChEMBL document CHEMBL1201862, “PubChem BioAssay data set” (2004)
